# Test results reported in patent publication USRE47689E1, “Compounds for treating spinal muscular atrophy” (PTC Therapeutics, Inc., priority 2011, dated 2019).
# Legend:
# Format in all cases: in vivo, mouse
# [1] = test system: full length and Δ7 SMN2 mRNAs; test: Endogenous SMN2 mRNA end-point semi-quantitative RT-PCR splicing assay in animal tissues; details: C/C-allele SMA mice, brain and muscle, oral gavage twice per day for 10 days, agarose gel
# Protocol: The endpoint reverse transcription-PCR (RT-PCR) splicing assay is used to quantify the levels of the full length and Δ7 SMN2 mRNAs in tissues from mice treated with test compound.
# Protocol. C/C-allele SMA mice are treated by oral gavage two times per day for 10 days with test compounds in 0.5% HPMC and 0.1% Tween-80. Tissue samples are collected and snap frozen for RNA purification.
# Tissue samples (20-40 mg) are homogenized in QIAzol Lysis Reagent for 2 minutes at 20 Hz in the TissueLyser II using one stainless steel bead. After addition of chloroform, the homogenate is separated into aqueous and organic phases by centrifugation. RNA partitioned to the upper, aqueous phase is extracted and ethanol is added to provide appropriate binding conditions. The sample is then applied to the RNeasy spin column from the RNeasy Mini Kit, where total RNA binds to the membrane. The RNA is eluted in RNase-free water then stored at −20° C.
# SMN2 spliced products are identified using the following amplification primers in Table 8. These primers hybridize to a nucleotide sequence in exon 6 (SMN Forward D, SEQ ID NO. 13) (nucleotide 22 to nucleotide 46) and exon 8 (SMN Reverse C, SEQ ID NO. 12) common to human SMN1 and SMN2 mRNAs.
# To synthesize cDNA, combine 1 μL of RNA solution (25-50 ng), 4 μL of 5× iScript reaction mix, 1 μL of reverse transcriptase, and 10 μL of water are combined and incubates 25° C. for 5 min followed by 42° C. for 30 min followed by 85° C. for 5 min. cDNA solution is stored at −20° C.
# To perform endpoint PCR, 5 μL of cDNA, 0.2 μL of 100 μM forward primer, 0.2 μL of 100 μM reverse primer, and 22.5 μL of polymerase super mix are combined in a 96 well semiskirted PCR plate. PCR is carried out at the following temperatures for indicated time: Step 1: 94° C. (2 min), Step 2: 94° C. (30 sec), Step 3: 55° C. (30 sec), Step 4: 68° C. (1 min), then repeat Steps 2 to 4 for a total of 33 cycles, then hold at 4° C.
# 10 μL of each PCR sample is electrophoretically separated on a 2% agarose E-gel for 14 minutes, stained with ds DNA staining reagents (e.g., ethidium bromide) and visualized using a gel imager.
# Smn protein = Smn protein assay in tissues of adult C/C-allele SMA mice; details: brain, spinal cord, muscle, 10 mg/kg orally twice a day for 10 days
# Protocol: This Smn protein assay compares tissues from test compound treated mice with those from DMSO vehicle treated mice to determine the increase in levels of Smn protein produced from the human SMN2 gene.
# Protocol. The tissue samples in Safe-Lock tubes are weighed and the volume of RIPA buffer containing the protease inhibitor cocktail is added based on the weight to volume ratios for each type of tissue: Brain (50 mg/mL), Muscle (50 mg/mL) and Spinal Cord (25 mg/mL).
# Tissues are homogenized using the TissueLyzer by bead milling. 5 mm stainless steel beads are added to the sample and shaken vigorously for 5 minutes at 30 Hz in the TissueLyzer. The samples are then centrifuged for 20 minutes at 14,000×g in a microcentrifuge and the homogenates transferred to the PCR plate. The homogenates are diluted in RIPA buffer to approximately 1 mg/mL for HTRF and approximately 0.5 mg/mL for total protein measurement using the BCA protein assay. For the SMN HTRF assay, 35 μL of the tissue homogenate is transferred to a 384-well plate containing 5 μL of the antibody solution (1:100 dilution of each of the anti-SMNd2 and anti-SMN Kryptate in reconstitution buffer). To provide a control signal, three (3) wells in the plate contain only RIPA Lysis Buffer and, thus, serve as Blank control wells. The plate is centrifuged for 1 minute to bring the solution to the bottom of the wells and then incubated overnight at room temperature. Fluorescence for each well of the plate at 665 nm and 620 nm is measured on an EnVision multilabel plate reader (Perkin-Elmer). The total protein in the tissue homogenate is measured using the BCA assay according to the manufacturer's protocol.
# The normalized fluorescence signal is calculated for each sample, Blank and vehicle control well by dividing the signal at 665 nm by the signal at 620 nm. Normalizing the signal accounts for possible fluorescence quenching due to the matrix effect of the tissue homogenate. The ΔF value (a measurement of Smn protein abundance) for each tissue sample well is calculated by subtracting the normalized average fluorescence for the Blank control wells from the normalized fluorescence for each tissue sample well and then dividing this difference by the normalized average fluorescence for the Blank control wells. The ΔF value for each tissue sample well is divided by the total protein quantity (determined using the BCA assay) for that tissue sample. The change in Smn protein abundance for each tissue sample relative to the vehicle control is calculated as the percent difference in the ΔF value of the tissue sample in the presence of the test compound and the averaged ΔF value of the vehicle control signal divided by the averaged ΔF value of the vehicle control signal. […]
# [2] = test system: SMA Δ7 homozygous knockout mice; test: Righting reflex in neonatal Δ7 SMA mice; details: IP QD from PND 3 to day 24, then orally BID, compared to vehicle
# Protocol: The functional change in righting reflex of neonatal SMA mice is used to determine whether treatment with a test compound improves righting reflex.
# Protocol. SMA Δ7 homozygous knockout mice are dosed intraperitoneally (IP) with test compound or vehicle (100% DMSO) once per day (QD) from postnatal day (PND) 3 until the dose regimen is switched to an oral dose twice per day (BID) in 0.5% hydroxypropylmethyl cellulose (HPMC) with 0.1% Tween-80 at a dose 3.16-fold higher than the dose used for IP. The righting reflex time is measured as the time taken by a mouse to flip over onto its feet after being laid on its back. Righting reflex is measured five times for each mouse (allowing a maximal time of 30 sec for each try) with 5 minutes between each measurement. The righting reflex time for SMA Δ7 homozygous knockout mice treated with test compound or vehicle and age-matched heterozygous mice is measured on PND 10, 14 and 18 and plotted.
structure (smiles),measurement,setting,value
"CCN1CCN(c2ccc3cc(-c4cn5cc(C)nc(C)c5n4)c(=O)oc3c2)C[C@@H]1C [Cpd 626, 3-(6,8-dimethylimidazo[1,2-a]pyrazin-2-yl)-7-[(3S)-4-ethyl-3-methylpiperazin-1-yl]-2H-chromen-2-one]",SMN2 FL mRNA,[1],progressively more SMN2 FL mRNA
same,SMN2 Δ7 mRNA,[1],less SMN2 Δ7 mRNA
same,Smn protein levels in target tissues compared with heterozygous mice,Smn protein,above those observed in the corresponding tissues of the heterozygous mice
same,total protein normalized Smn level relative to the vehicle group,Smn protein,increased
"CC(C)NCCc1ccc2cc(-c3nc4c(Cl)cccc4s3)c(=O)oc2c1 [Cpd 35, 3-(4-chloro-1,3-benzothiazol-2-yl)-7-[2-(propan-2-ylamino)ethyl]-2H-chromen-2-one]",SMN2 FL mRNA,[1],progressively more SMN2 FL mRNA
same,SMN2 Δ7 mRNA,[1],less SMN2 Δ7 mRNA
same,Smn protein levels in target tissues compared with heterozygous mice,Smn protein,above those observed in the corresponding tissues of the heterozygous mice
same,total protein normalized Smn level relative to the vehicle group,Smn protein,increased
same,righting reflex,[2],improved compared to vehicle treated mice
